Laboratory results: PMC7064328 (Environmental Health Perspectives, 2020)

System: Pregnant CD-1 mice
Assay: Clinical chemistry of dam serum and urine
Format: in vivo, mouse (CD-1)
Settings: for ALB / ALP / ALT / AST / BUN / Chol / Cre / Glu / HDL / LDL / SDH / TBA / TP / Trig: dam serum; for Ucrea: dam urine
Experimental: Dam livers, kidneys, and placentas were trimmed and embedded by the NIEHS Mouse Embryo Phenotyping Core. Tissues collected at necropsy were fixed in 4% PFA for 72 h and paraffin embedded, and 5-μm sections were prepared and stained with hematoxylin and eosin (H&E). Pathology was evaluated and a pathology review conducted by S.A.E. Diplomate American College of Veterinary Pathologists (DACVP). Pathology reviews were conducted as an informed approach analysis [e.g., nonblinded analysis; see Sills et al. ([2019])]. Select tissue slides were scanned using the AT2 Scanner (Aperio). Images were then captured for publication using the ImageScope software; version 12.3.0.5056 (Aperio). Serum and urine obtained from dams in Block 2 were analyzed using the AU480 clinical chemistry analyzer (Beckman Coulter Inc.). Reagents and calibration standards used to measure alkaline phosphatase (ALP), alanine aminotransferase (ALT), aspartate aminotransferase (AST), blood urea nitrogen (BUN), serum creatinine, urine creatinine, glucose (Glu), total protein (TP), triglyceride (Trig), high-density lipoprotein (HDL), cholesterol (Chol), and albumin (ALB) were purchased from Beckman Coulter Inc. Reagents for sorbitol dehydrogenase (SDH), total bile acid (TBA), and micro-TP were purchased from Sekisui Diagnostics. The reagent used to measure low-density lipoprotein (LDL) was purchased form Diazyme Laboratories.

SMILES: N.O=C(O)C(F)(OC(F)(F)C(F)(F)C(F)(F)F)C(F)(F)F (stereo not drawn) [GenX, ammonium 2,3,3,3-tetrafluoro-2-(heptafluoropropoxy)propanoate]
- Chol higher compared with controls (E11.5, 2 mg/kg/d): 66%
- Dam serum Trig lowered vs controls (E11.5, 2 mg/kg/d): 43%
- HDL higher compared with controls (E11.5, 2 mg/kg/d): 56%
- Dam serum Trig lowered vs controls (E11.5, 10 mg/kg/d): 61%
- Dam serum Trig lower vs controls (E17.5, 10 mg/kg/d): 74%
- LDL lower vs controls (E17.5, 10 mg/kg/d): 31%
- ALB (E11.5, 2 mg/kg/d): 2.75±0.33 (4) g/dL
- ALP (E11.5, 2 mg/kg/d): 58.4±9.0 (5) U/L
- ALT (E11.5, 2 mg/kg/d): 24.2±13.7 (5) U/L
- AST (E11.5, 2 mg/kg/d): 69.0±22.0 (5) U/L
- BUN (E11.5, 2 mg/kg/d): 18.3±4.6 (4) mg/dL
- Chol (E11.5, 2 mg/kg/d): 93.4±27.8 (5) mg/dL
- Cre (E11.5, 2 mg/kg/d): 0.2±0.04 (4) mg/dL
- Glu (E11.5, 2 mg/kg/d): 249.3±25.8 (4) mg/dL
- HDL (E11.5, 2 mg/kg/d): 50.2±15.7 (5) mg/dL
- LDL (E11.5, 2 mg/kg/d): 15±4.8 (4) mg/dL
- SDH (E11.5, 2 mg/kg/d): 7.0±6.5 (4) U/L
- TBA (E11.5, 2 mg/kg/d): 1.4±0.55 (5) μM/L
- TP (E11.5, 2 mg/kg/d): 4.5±0.48 (4) g/dL
- Trig (E11.5, 2 mg/kg/d): 117.6±33.9 (5) mg/dL
- ALB (E11.5, 10 mg/kg/d): 2.8±0.17 (3) g/dL
- ALP (E11.5, 10 mg/kg/d): 83.0±25.8 (5) U/L
- ALT (E11.5, 10 mg/kg/d): 78.2±62.0 (5) U/L
- AST (E11.5, 10 mg/kg/d): 136.8±138.9 (4) U/L
- BUN (E11.5, 10 mg/kg/d): 13.7±1.5 (3) mg/dL
- Chol (E11.5, 10 mg/kg/d): 77.0±16.4 (4) mg/dL
- Cre (E11.5, 10 mg/kg/d): 0.18±0.02 (3) mg/dL
- Glu (E11.5, 10 mg/kg/d): 226.7±28.9 (3) mg/dL
- HDL (E11.5, 10 mg/kg/d): 43.3±6.1 (4) mg/dL
- LDL (E11.5, 10 mg/kg/d): 12.5±1.9 (4) mg/dL
- SDH (E11.5, 10 mg/kg/d): 8.0±3.65 (4) U/L
- TBA (E11.5, 10 mg/kg/d): 35.3±67.8 (4) μM/L
- TP (E11.5, 10 mg/kg/d): 4.37±0.29 (3) g/dL
- Trig (E11.5, 10 mg/kg/d): 80.3±14.4 (4) mg/dL
- ALB (E17.5, 2 mg/kg/d): 2.32±0.26 (5) g/dL
- ALP (E17.5, 2 mg/kg/d): 55.4±11.8 (5) U/L
- ALT (E17.5, 2 mg/kg/d): 4.4±3.9 (5) U/L
- AST (E17.5, 2 mg/kg/d): 65.6±12.1 (5) U/L
- BUN (E17.5, 2 mg/kg/d): 13.6±1.1 (5) mg/dL
- Chol (E17.5, 2 mg/kg/d): 86.6±17.1 (5) mg/dL
- Cre (E17.5, 2 mg/kg/d): 0.17±0.03 (5) mg/dL
- Glu (E17.5, 2 mg/kg/d): 123.2±13.1 (5) mg/dL
- HDL (E17.5, 2 mg/kg/d): 39.4±8.5 (5) mg/dL
- LDL (E17.5, 2 mg/kg/d): 20.0±3.9 (5) mg/dL
- SDH (E17.5, 2 mg/kg/d): 1.2±2.2 (5) U/L
- TBA (E17.5, 2 mg/kg/d): 4.8±3.0 (5) μM/L
- TP (E17.5, 2 mg/kg/d): 4.1±0.36 (5) g/dL
- Trig (E17.5, 2 mg/kg/d): 257.0±120.3 (5) mg/dL
- ALB (E17.5, 10 mg/kg/d): 2.26±0.3 (5) g/dL
- ALP (E17.5, 10 mg/kg/d): 88.8±13.0 (5) U/L
- ALT (E17.5, 10 mg/kg/d): 9.6±2.1 (5) U/L
- AST (E17.5, 10 mg/kg/d): 113.2±36.6 (5) U/L
- BUN (E17.5, 10 mg/kg/d): 15.2±1.8 (5) mg/dL
- Chol (E17.5, 10 mg/kg/d): 97.4±8.4 (5) mg/dL
- Cre (E17.5, 10 mg/kg/d): 0.15±0.06 (5) mg/dL
- Glu (E17.5, 10 mg/kg/d): 111.6±15.5 (5) mg/dL
- HDL (E17.5, 10 mg/kg/d): 50.0±8.9 (5) mg/dL
- LDL (E17.5, 10 mg/kg/d): 15.2±2.9 (5) mg/dL
- SDH (E17.5, 10 mg/kg/d): 11.4±6.8 (5) U/L
- TBA (E17.5, 10 mg/kg/d): 6.2±4.2 (5) μM/L
- TP (E17.5, 10 mg/kg/d): 3.9±0.52 (5) g/dL
- Trig (E17.5, 10 mg/kg/d): 120.6±31.7 (5) mg/dL
- Ucrea (E11.5, 2 mg/kg/d): 53.2±14.0 (3) mg/dL
- Ucrea (E11.5, 10 mg/kg/d): 82.9±33.2 (5) mg/dL
- Ucrea (E17.5, 2 mg/kg/d): 18.6±5.1 (4) mg/dL
- Ucrea (E17.5, 10 mg/kg/d): 20.2±15.7 (4) mg/dL

SMILES: O=C(O)C(F)(F)C(F)(F)C(F)(F)C(F)(F)C(F)(F)C(F)(F)C(F)(F)F [PFOA, Perfluorooctanoic acid]
- Dam serum Trig lowered vs controls (E11.5, 1 mg/kg/d): 37%
- Dam serum Trig lowered vs controls (E11.5, 5 mg/kg/d): 58%
- Serum Glu lower relative to controls (E11.5, 5 mg/kg/d, p=0.06): 20%
- Dam serum Trig lower vs controls (E17.5, 5 mg/kg/d): 66%
- LDL lower vs controls (E17.5, 5 mg/kg/d): 50%
- ALT increase relative to controls (Table 2 (E11.5), 5 mg/kg/d, not statistically significant): 172%
- ALB (E11.5, 1 mg/kg/d): 2.42±0.22 (5) g/dL
- ALP (E11.5, 1 mg/kg/d): 54.6±4.4 (5) U/L
- ALT (E11.5, 1 mg/kg/d): 28.8±11.5 (5) U/L
- AST (E11.5, 1 mg/kg/d): 144.6±167.6 (5) U/L
- BUN (E11.5, 1 mg/kg/d): 15.0±2.7 (5) mg/dL
- Chol (E11.5, 1 mg/kg/d): 68.8±18.0 (5) mg/dL
- Cre (E11.5, 1 mg/kg/d): 0.2±0.05 (5) mg/dL
- Glu (E11.5, 1 mg/kg/d): 278.4±27.8 (5) mg/dL
- HDL (E11.5, 1 mg/kg/d): 34.8±10.9 (5) mg/dL
- LDL (E11.5, 1 mg/kg/d): 12.2±1.9 (5) mg/dL
- SDH (E11.5, 1 mg/kg/d): 8.4±7.8 (5) U/L
- TBA (E11.5, 1 mg/kg/d): 1.5±0.58 (4) μM/L
- TP (E11.5, 1 mg/kg/d): 4.04±0.3 (5) g/dL
- Trig (E11.5, 1 mg/kg/d): 130.4±16.2 (5) mg/dL
- ALB (E11.5, 5 mg/kg/d): 2.36±0.21 (5) g/dL
- ALP (E11.5, 5 mg/kg/d): 56.6±35.6 (5) U/L
- ALT (E11.5, 5 mg/kg/d): 70.8±16.2 (5) U/L
- AST (E11.5, 5 mg/kg/d): 92.6±20.3 (5) U/L
- BUN (E11.5, 5 mg/kg/d): 15.8±1.3 (5) mg/dL
- Chol (E11.5, 5 mg/kg/d): 69.4±9.9 (5) mg/dL
- Cre (E11.5, 5 mg/kg/d): 0.18±0.03 (5) mg/dL
- Glu (E11.5, 5 mg/kg/d): 220.4±22.1 (5) mg/dL
- HDL (E11.5, 5 mg/kg/d): 42.6±4.0 (5) mg/dL
- LDL (E11.5, 5 mg/kg/d): 10.6±1.5 (5) mg/dL
- SDH (E11.5, 5 mg/kg/d): 12.4±8.3 (5) U/L
- TBA (E11.5, 5 mg/kg/d): 2.0±0.0 (5) μM/L
- TP (E11.5, 5 mg/kg/d): 3.78±0.22 (5) g/dL
- Trig (E11.5, 5 mg/kg/d): 86.4±15.8 (5) mg/dL
- ALB (E17.5, 1 mg/kg/d): 2.04±0.09 (5) g/dL
- ALP (E17.5, 1 mg/kg/d): 50.2±4.2 (5) U/L
- ALT (E17.5, 1 mg/kg/d): 7.0±4.3 (5) U/L
- AST (E17.5, 1 mg/kg/d): 73.0±14.0 (5) U/L
- BUN (E17.5, 1 mg/kg/d): 16.4±1.7 (5) mg/dL
- Chol (E17.5, 1 mg/kg/d): 83.8±20.0 (5) mg/dL
- Cre (E17.5, 1 mg/kg/d): 0.2±0.01 (5) mg/dL
- Glu (E17.5, 1 mg/kg/d): 121.0±17.3 (5) mg/dL
- HDL (E17.5, 1 mg/kg/d): 37.2±6.2 (5) mg/dL
- LDL (E17.5, 1 mg/kg/d): 24.0±10.7 (5) mg/dL
- SDH (E17.5, 1 mg/kg/d): 3.4±6.1 (5) U/L
- TBA (E17.5, 1 mg/kg/d): 3.0±1.2 (5) μM/L
- TP (E17.5, 1 mg/kg/d): 3.9±0.11 (5) g/dL
- Trig (E17.5, 1 mg/kg/d): 364.0±272.9 (5) mg/dL
- ALB (E17.5, 5 mg/kg/d): 1.53±0.27 (6) g/dL
- ALP (E17.5, 5 mg/kg/d): 74.8±23.8 (6) U/L
- ALT (E17.5, 5 mg/kg/d): 16.8±7.7 (6) U/L
- AST (E17.5, 5 mg/kg/d): 172.2±63.1 (6) U/L
- BUN (E17.5, 5 mg/kg/d): 18.7±5.3 (6) mg/dL
- Chol (E17.5, 5 mg/kg/d): 68.5±16.4 (6) mg/dL
- Cre (E17.5, 5 mg/kg/d): 0.16±0.06 (6) mg/dL
- Glu (E17.5, 5 mg/kg/d): 112.0±15.8 (6) mg/dL
- HDL (E17.5, 5 mg/kg/d): 38.8±11.2 (6) mg/dL
- LDL (E17.5, 5 mg/kg/d): 11.0±3.0 (5) mg/dL
- SDH (E17.5, 5 mg/kg/d): 24.3±11.2 (6) U/L
- TBA (E17.5, 5 mg/kg/d): 8.0±7.9 (6) μM/L
- TP (E17.5, 5 mg/kg/d): 2.8±0.39 (6) g/dL
- Trig (E17.5, 5 mg/kg/d): 159.0±65.5 (6) mg/dL
- Ucrea (E11.5, 1 mg/kg/d): 92.0±13.1 (4) mg/dL
- Ucrea (E11.5, 5 mg/kg/d): 50.1±33.8 (4) mg/dL
- Ucrea (E17.5, 1 mg/kg/d): 24.7±23.1 (2) mg/dL
- Ucrea (E17.5, 5 mg/kg/d): 11.5±5.9 (3) mg/dL
